Tested on: healthy dogs
Experiment: Sedation score
Type: in vivo, dogs (Beagles)
[1] = IV inhibitors, 0.4 mg/kg IV after CYP inhibitors, 0.5 hr
[2] = IV inhibitors, 0.4 mg/kg IV after CYP inhibitors, 1 hr
[3] = IV inhibitors, 0.4 mg/kg IV after CYP inhibitors, 1.5 hr
[4] = IV inhibitors, 0.4 mg/kg IV after CYP inhibitors, 2 hr
[5] = IV inhibitors, 0.4 mg/kg IV after CYP inhibitors, 3 hr
[6] = IV inhibitors, 0.4 mg/kg IV after CYP inhibitors, 4 hr
[7] = IV inhibitors, 0.4 mg/kg IV after CYP inhibitors, 5 hr
[8] = IV inhibitors, 0.4 mg/kg IV after CYP inhibitors, 6 hr
[9] = IV inhibitors, 0.4 mg/kg IV after CYP inhibitors, 7 hr
[10] = IV inhibitors, 0.4 mg/kg IV after CYP inhibitors, 8 hr
[11] = IV inhibitors, 0.4 mg/kg IV after CYP inhibitors, 9 hr
[12] = IV inhibitors, 0.4 mg/kg IV after CYP inhibitors, 10 hr
[13] = IV inhibitors, 0.4 mg/kg IV after CYP inhibitors, 11 hr
[14] = IV inhibitors, 0.4 mg/kg IV after CYP inhibitors, 12 hr
[15] = IV inhibitors, 0.4 mg/kg IV after CYP inhibitors, 24 hr

Oc1ccc2c(c1)[C@@]13CCCC[C@@]1(O)[C@@H](C2)N(CC1CCC1)CC3 [butorphanol]
1.5 to 2 h: time with moderate sedation or greater in at least 1 dog (SC 0.4 mg/kg)
4: number of dogs with sedation score 1 [4] | number of dogs with sedation score 1 (SC 0.4 mg/kg, 4 hr) | number of dogs with sedation score 1 (SC 0.4 mg/kg, 5 hr) | number of dogs with sedation score 0 (SC 0.4 mg/kg, 6 hr)
0: number of dogs with sedation score 0 [1] | number of dogs with sedation score 2 [1] | number of dogs with sedation score 3 [1] | number of dogs with sedation score 0 [2] | number of dogs with sedation score 2 [2] | number of dogs with sedation score 3 [2] | number of dogs with sedation score 0 [3] | number of dogs with sedation score 2 [3] | number of dogs with sedation score 3 [3] | number of dogs with sedation score 0 [4] | number of dogs with sedation score 3 [4] | number of dogs with sedation score 0 [5] | number of dogs with sedation score 3 [5] | number of dogs with sedation score 2 [6] | number of dogs with sedation score 3 [6] | number of dogs with sedation score 1 [7] | number of dogs with sedation score 2 [7] | number of dogs with sedation score 3 [7] | number of dogs with sedation score 1 [8] | number of dogs with sedation score 2 [8] | number of dogs with sedation score 3 [8] | number of dogs with sedation score 1 [9] | number of dogs with sedation score 2 [9] | number of dogs with sedation score 3 [9] | number of dogs with sedation score 1 [10] | number of dogs with sedation score 2 [10] | number of dogs with sedation score 3 [10] | number of dogs with sedation score 1 [11] | number of dogs with sedation score 2 [11] | number of dogs with sedation score 3 [11] | number of dogs with sedation score 1 [12] | number of dogs with sedation score 2 [12] | number of dogs with sedation score 3 [12] | number of dogs with sedation score 1 [13] | number of dogs with sedation score 2 [13] | number of dogs with sedation score 3 [13] | number of dogs with sedation score 1 [14] | number of dogs with sedation score 2 [14] | number of dogs with sedation score 3 [14] | number of dogs with sedation score 1 [15] | number of dogs with sedation score 2 [15] | number of dogs with sedation score 3 [15] | number of dogs with sedation score 0 (SC 0.4 mg/kg, 0.5 hr) | number of dogs with sedation score 2 (SC 0.4 mg/kg, 0.5 hr) | number of dogs with sedation score 3 (SC 0.4 mg/kg, 0.5 hr) | number of dogs with sedation score 0 (SC 0.4 mg/kg, 1 hr) | number of dogs with sedation score 2 (SC 0.4 mg/kg, 1 hr) | number of dogs with sedation score 3 (SC 0.4 mg/kg, 1 hr) | number of dogs with sedation score 0 (SC 0.4 mg/kg, 1.5 hr) | number of dogs with sedation score 3 (SC 0.4 mg/kg, 1.5 hr) | number of dogs with sedation score 0 (SC 0.4 mg/kg, 2 hr) | number of dogs with sedation score 3 (SC 0.4 mg/kg, 2 hr) | number of dogs with sedation score 2 (SC 0.4 mg/kg, 3 hr) | number of dogs with sedation score 3 (SC 0.4 mg/kg, 3 hr) | number of dogs with sedation score 2 (SC 0.4 mg/kg, 4 hr) | number of dogs with sedation score 3 (SC 0.4 mg/kg, 4 hr) | number of dogs with sedation score 2 (SC 0.4 mg/kg, 5 hr) | number of dogs with sedation score 3 (SC 0.4 mg/kg, 5 hr) | number of dogs with sedation score 2 (SC 0.4 mg/kg, 6 hr) | number of dogs with sedation score 3 (SC 0.4 mg/kg, 6 hr) | number of dogs with sedation score 1 (SC 0.4 mg/kg, 7 hr) | number of dogs with sedation score 2 (SC 0.4 mg/kg, 7 hr) | number of dogs with sedation score 3 (SC 0.4 mg/kg, 7 hr) | number of dogs with sedation score 1 (SC 0.4 mg/kg, 8 hr) | number of dogs with sedation score 2 (SC 0.4 mg/kg, 8 hr) | number of dogs with sedation score 3 (SC 0.4 mg/kg, 8 hr) | number of dogs with sedation score 1 (SC 0.4 mg/kg, 9 hr) | number of dogs with sedation score 2 (SC 0.4 mg/kg, 9 hr) | number of dogs with sedation score 3 (SC 0.4 mg/kg, 9 hr) | number of dogs with sedation score 1 (SC 0.4 mg/kg, 10 hr) | number of dogs with sedation score 2 (SC 0.4 mg/kg, 10 hr) | number of dogs with sedation score 3 (SC 0.4 mg/kg, 10 hr) | number of dogs with sedation score 1 (SC 0.4 mg/kg, 11 hr) | number of dogs with sedation score 2 (SC 0.4 mg/kg, 11 hr) | number of dogs with sedation score 3 (SC 0.4 mg/kg, 11 hr) | number of dogs with sedation score 1 (SC 0.4 mg/kg, 12 hr) | number of dogs with sedation score 2 (SC 0.4 mg/kg, 12 hr) | number of dogs with sedation score 3 (SC 0.4 mg/kg, 12 hr) | number of dogs with sedation score 1 (SC 0.4 mg/kg, 24 hr) | number of dogs with sedation score 2 (SC 0.4 mg/kg, 24 hr) | number of dogs with sedation score 3 (SC 0.4 mg/kg, 24 hr)
6: number of dogs with sedation score 1 [1] | number of dogs with sedation score 1 [2] | number of dogs with sedation score 1 [3] | number of dogs with sedation score 0 [7] | number of dogs with sedation score 0 [8] | number of dogs with sedation score 0 [9] | number of dogs with sedation score 0 [10] | number of dogs with sedation score 0 [11] | number of dogs with sedation score 0 [12] | number of dogs with sedation score 0 [13] | number of dogs with sedation score 0 [14] | number of dogs with sedation score 0 [15] | number of dogs with sedation score 1 (SC 0.4 mg/kg, 0.5 hr) | number of dogs with sedation score 1 (SC 0.4 mg/kg, 1 hr) | number of dogs with sedation score 0 (SC 0.4 mg/kg, 7 hr) | number of dogs with sedation score 0 (SC 0.4 mg/kg, 8 hr) | number of dogs with sedation score 0 (SC 0.4 mg/kg, 9 hr) | number of dogs with sedation score 0 (SC 0.4 mg/kg, 10 hr) | number of dogs with sedation score 0 (SC 0.4 mg/kg, 11 hr) | number of dogs with sedation score 0 (SC 0.4 mg/kg, 12 hr) | number of dogs with sedation score 0 (SC 0.4 mg/kg, 24 hr)
5: number of dogs with sedation score 1 [5] | number of dogs with sedation score 1 (SC 0.4 mg/kg, 1.5 hr) | number of dogs with sedation score 1 (SC 0.4 mg/kg, 2 hr) | number of dogs with sedation score 1 (SC 0.4 mg/kg, 3 hr)
3: number of dogs with sedation score 0 [6] | number of dogs with sedation score 1 [6]
1: number of dogs with sedation score 2 [5] | number of dogs with sedation score 2 (SC 0.4 mg/kg, 1.5 hr) | number of dogs with sedation score 2 (SC 0.4 mg/kg, 2 hr) | number of dogs with sedation score 0 (SC 0.4 mg/kg, 3 hr)
2: number of dogs with sedation score 2 [4] | number of dogs with sedation score 0 (SC 0.4 mg/kg, 4 hr) | number of dogs with sedation score 0 (SC 0.4 mg/kg, 5 hr) | number of dogs with sedation score 1 (SC 0.4 mg/kg, 6 hr)
